Measured values reported in patent publication US12595248B2, “PRMT5 inhibitors” (Merck Sharp & Dohme LLC, priority 2019, dated 2026).

Key:
[1] = molecular target: T1, PRMT5-MEP50 enzyme complex (Homo sapiens, UniProt O14744); assay: PRMT5-MEP50 Enzyme Methylation Assay (Version A); assay type: biochemical
T1 construct: Full-length (FL)-PRMT5-MEP50 enzyme complex (recombinant proteins from baculovirus-transfected Sf21 cells: FL-PRMT5; MW=73837 kDa and FL-MEP50; MW=38614); made in house; host or cells: baculovirus-transfected Sf21 cells
Procedure: PRMT5-MEP50 Enzyme Methylation Assay (Version A)
PRMT5-MEP50 biochemical assay is a direct measurement of the methylation activity of the enzyme complex on a short peptide substrate derived from the N-terminus of H4 histone. Methylation experiment was performed with recombinant PRMT5-MEP50 protein complex. The assessment of inhibitory effect of small molecules was measured by the effectiveness of the compounds to inhibit this reaction (EC50).
In this assay, the potency (EC50) of each compound was determined from a twenty-point (1:2 serial dilution; top compound concentration of 100000 nM) titration curve using the following outlined procedure. To each well of a white ProxiPlus 384 well-plate, 100 nL of compound (1% DMSO in final assay volume of 10 μL) was dispensed, followed by the addition of 8 μL of 1× assay buffer (50 mM Bicine pH 8.0, 1 mM DTT, 0.004% Tween20, 0.01% BSA) containing 1.25 nM of Full-length (FL)-PRMT5-MEP50 enzyme complex (recombinant proteins from baculovirus-transfected Sf21 cells: FL-PRMT5; MW=[…] and FL-MEP50; MW=38614) and 1 μL of 150 μM S-(5′-Adenosyl)-L-Methionine Chloride (SAM). A plate was sealed and placed in a 37° C. humidified chamber for a 60 minutes pre-incubation with compound. Subsequently, each reaction was initiated by the addition of 1 μL 1× assay buffer containing 750 nM biotinylated H4R3 (MeI) peptide. The final reaction in each well of 10 μL consists of 1.0 nM PRMT5-MEP50, 75 nM biotinylated-peptide, and 15 μM SAM. Methylation reactions were allowed to proceed for 150 minutes in a sealed plate at 37° C. Reactions were immediately quenched by the addition of 1 μL of 5% formic acid. A plate was then frozen and shipped to SAMDI™ Tech Inc. to determine the percent conversion from H4R3 (MeI) to H4R3 (Me2). Dose-response curves were generated by plotting percent effect (% product conversion; Y-axis) vs. Log 10 compound concentrations (X-axis). EC50 values were determined by non-linear regression according to models for either sigmoidal (4 parameters) or biphasic (7 parameters) dose-response curves.

PRMT5 = molecular target: T2, PRMT5 (Homo sapiens, UniProt O14744); assay: PRMT5 Cell Target Engagement (TE) Assay; assay type: cell-based; conditions: MCF-7 cells, treated for 3 days, symmetric dimethylation of arginine (SDMA) by high content imaging
T2 construct: seeded with 4000 MCF-7 cells in 30 μl media; endogenous in cells; host or cells: MCF-7 cells
Outline: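 Readout is single-cell nuclear symmetric-dimethylarginine immunofluorescence (Alexa488), normalized to DMSO-treated cells. Compounds were applied to MCF-7 cells for 3 days at 37 °C, top concentration 10000 nM in 1:3 steps over ten points; curves fitted with 4-parameter robust fit.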

[2] = molecular target: T1, PRMT5-MEP50 enzyme complex; assay: PRMT5-MEP50 Enzyme Methylation Assay (Version B); assay type: biochemical
Outline: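 Recombinant full-length PRMT5-MEP50 (0.5 nM, Sf21-expressed) pre-incubated 30 min at 37 °C with compound (20-point, 1:2, top 100000 nM), then reacted 150 min at 37 °C with 75 nM biotinylated H4R3 peptide and 15 μM SAM in Bicine pH 8.0. Formic acid quench; SAMDI MS conversion to Me2; EC50 by sigmoidal or biphasic fit.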

[3] = only one EC50 shown: 4 parameters single site sigmoidal model, 60 min pre-incubation with SAM, read-out: Enzyme Methylation Assay Version A (EC50)
[4] = first of two EC50s: 7 parameters biphasic model, read-out: Enzyme Methylation Assay Version A (EC50_1)
[5] = second of two EC50s: 7 parameters biphasic model, read-out: Enzyme Methylation Assay Version A (EC50_2)
[6] = first of two EC50s: 7 parameters biphasic model, read-out: Enzyme Methylation Assay Version B (EC50_1)
[7] = second of two EC50s: 7 parameters biphasic model, read-out: Enzyme Methylation Assay Version B (EC50_2)

T1 sequence (O14744 whole entry): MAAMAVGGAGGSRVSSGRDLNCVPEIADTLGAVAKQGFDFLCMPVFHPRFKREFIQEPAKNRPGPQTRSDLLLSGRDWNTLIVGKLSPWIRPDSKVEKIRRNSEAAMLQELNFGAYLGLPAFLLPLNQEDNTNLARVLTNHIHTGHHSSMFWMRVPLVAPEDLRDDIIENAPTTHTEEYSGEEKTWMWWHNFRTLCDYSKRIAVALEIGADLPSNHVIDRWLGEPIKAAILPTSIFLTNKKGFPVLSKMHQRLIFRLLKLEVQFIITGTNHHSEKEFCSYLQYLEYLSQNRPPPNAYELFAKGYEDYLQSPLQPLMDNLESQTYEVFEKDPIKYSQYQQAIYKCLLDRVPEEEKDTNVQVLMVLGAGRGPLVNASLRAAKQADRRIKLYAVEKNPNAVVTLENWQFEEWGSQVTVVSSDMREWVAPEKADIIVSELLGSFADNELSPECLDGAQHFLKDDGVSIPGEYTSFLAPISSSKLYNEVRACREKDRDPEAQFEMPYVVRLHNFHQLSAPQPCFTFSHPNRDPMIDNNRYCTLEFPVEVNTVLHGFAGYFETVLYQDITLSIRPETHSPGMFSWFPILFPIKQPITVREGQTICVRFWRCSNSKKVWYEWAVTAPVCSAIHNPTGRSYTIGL
T1 sequence (Q9BQA1 whole entry partner): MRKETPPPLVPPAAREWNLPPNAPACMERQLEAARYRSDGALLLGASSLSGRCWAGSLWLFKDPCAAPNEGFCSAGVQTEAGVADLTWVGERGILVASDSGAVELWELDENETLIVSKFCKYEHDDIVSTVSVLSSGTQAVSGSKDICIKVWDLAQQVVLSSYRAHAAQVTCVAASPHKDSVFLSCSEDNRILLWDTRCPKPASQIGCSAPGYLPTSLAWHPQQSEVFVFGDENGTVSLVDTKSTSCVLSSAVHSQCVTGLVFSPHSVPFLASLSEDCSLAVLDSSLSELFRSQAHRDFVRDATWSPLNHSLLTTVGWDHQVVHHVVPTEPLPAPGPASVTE
T2 sequence (O14744 whole entry): as the sequence (O14744 whole entry) above
T2 sequence (Q9BQA1 whole entry partner): as the sequence (Q9BQA1 whole entry partner) above

EC50 [1, 3] [nM] | EC50 (PRMT5) [nM] | EC50 [1, 4] [nM] | EC50 [1, 5] [nM] | EC50 [2, 6] [nM] | EC50 [2, 7] [nM] | Compound
1.1 | 9.8 |  |  |  |  | O=C(c1cn2cc(Br)ccc2n1)N1CC[C@H](N2CCc3ccccc3C2)[C@@H](O)C1 (single isomer, unassigned) [Example 1]
 | > 10000 | 159 | 58900 |  |  | CC(=O)N1CCC(Nc2cc(C(=O)N3CCC(N4CCc5ccccc5C4)C(O)C3(C)C)ccn2)CC1 (single isomer, unassigned) [Example 22, l-(4-((4-(4-(3,4-dihydroisoquinolin-2(1H)-yl)-3-hydroxy-2,2-dimethylpiperidine-1-carbonyl)pyridin-2-yl)amino)piperidin-1-yl)ethan-1-one]
 | 4690 | ~36 | 31600 |  |  | CC(=O)N1CCC(Nc2cc(C(=O)N3CCC(N4CCc5ccccc5C4)C(O)C3(C)C)ccn2)CC1 (single isomer, unassigned) [Example 23, l-(4-((4-(4-(3,4-dihydroisoquinolin-2(1H)-yl)-3-hydroxy-2,2-dimethylpiperidine-1-carbonyl)pyridin-2-yl)amino)piperidin-1-yl)ethan-1-one]
0.4 | 2.2 |  |  |  |  | COC(C)c1cc(Br)cn2cc(C(=O)N3CC[C@H](N4CCc5ccccc5C4)[C@@H](O)C3)nc12 (single isomer, unassigned) [Example 68, (6-bromo-8-((R or S)-1-methoxyethyl)imidazo[1,2-a]pyridin-2-yl)((3S,4S)-4-(3,4-dihydroisoquinolin-2(1H)-yl)-3-hydroxypiperidin-1-yl)methanone]
0.7 | 2.5 |  |  |  |  | O=C1Nc2cc(C(=O)N3CC[C@H](N4CCc5ccccc5C4)[C@@H](O)C3)ccc2OC1C1CC1 (single isomer, unassigned) [Example 80]
 | 59 | 1.6 | 5010 |  |  | O=C1Nc2cc(C(=O)N3CC[C@H](N4CCc5ccccc5C4)[C@@H](O)C3)ccc2OC1C1CC1 (single isomer, unassigned) [Example 81]
0.9 | 5.6 |  |  |  |  | CC1(C)CC(C2Oc3ccc(C(=O)N4CC[C@H](N5CCc6ccccc6C5)[C@@H](O)C4)cc3NC2=O)CO1 (single isomer, unassigned) [Example 84]
1.3 | 6.4 |  |  |  |  | CC1(C)CC(C2Oc3ccc(C(=O)N4CC[C@H](N5CCc6ccccc6C5)[C@@H](O)C4)cc3NC2=O)CO1 (single isomer, unassigned) [Example 85]
 | 50 | 3.1 | 9550 |  |  | CC(=O)N1CCC(Nc2cc(C(=O)N3CC[C@H](N4CCc5ccccc5C4)[C@@H](O)C3)c(F)cn2)C1 (single isomer, unassigned) [Example 113]
 | 28 | 3.3 | 3130 |  |  | CC(=O)N1CCC(Nc2cc(C(=O)N3CC[C@H](N4CCc5ccccc5C4)[C@@H](O)C3)c(F)cn2)C1 (single isomer, unassigned) [Example 114]
6.5 | 140 |  |  |  |  | O=C(c1cc(NC2CCN3C(=O)CCC3C2)ncc1F)N1CC[C@H](N2CCc3ccccc3C2)[C@@H](O)C1 (single isomer, unassigned) [Example 115]
3.9 | 6.6 |  |  |  |  | O=C(c1cc(NC2CCN3C(=O)CCC3C2)ncc1F)N1CC[C@H](N2CCc3ccccc3C2)[C@@H](O)C1 (single isomer, unassigned) [Example 116]
1.8 | 3.3 |  |  |  |  | O=C(c1cc(NC2CCN3C(=O)CCC3C2)ncc1F)N1CC[C@H](N2CCc3ccccc3C2)[C@@H](O)C1 (single isomer, unassigned) [Example 117]
 | 55 | 2.9 | 10600 |  |  | O=C(c1cc(NC2CCN3C(=O)CCC3C2)ncc1F)N1CC[C@H](N2CCc3ccccc3C2)[C@@H](O)C1 (single isomer, unassigned) [Example 118]
3.5 | 15 |  |  |  |  | CC(=O)N1CC2CC1CC2Nc1cc(C(=O)N2CC[C@H](N3CCc4ccccc4C3)[C@@H](O)C2)c(F)cn1 (single isomer, unassigned) [Example 119]
 | 316 | 20 | 5490 |  |  | CC(=O)N1CC2CC1CC2Nc1cc(C(=O)N2CC[C@H](N3CCc4ccccc4C3)[C@@H](O)C2)c(F)cn1 (single isomer, unassigned) [Example 120]
0.4 | 12 |  |  |  |  | CC1(C)CC1(C#N)c1cnc2nc(C(=O)N3CC[C@H](N4CCc5ccccc5C4)[C@@H](O)C3)cn2c1 (single isomer, unassigned) [Example 127]
0.3 | 1.1 |  |  |  |  | CC1(C)CC1(C#N)c1cnc2nc(C(=O)N3CC[C@H](N4CCc5ccccc5C4)[C@@H](O)C3)cn2c1 (single isomer, unassigned) [Example 128]
1.4 | 6.4 |  |  |  |  | CC1CC1c1cnc2nc(C(=O)N3CCC(N4CCc5ccccc5C4)[C@@H](O)C3)cn2c1 (single isomer, unassigned) [Example 129]
0.7 | 3.8 |  |  |  |  | CC1CC1c1cnc2nc(C(=O)N3CCC(N4CCc5ccccc5C4)[C@@H](O)C3)cn2c1 (single isomer, unassigned) [Example 130]
0.5 | 4.6 |  |  |  |  | CC1CC1c1cnc2nc(C(=O)N3CCC(N4CCc5ccccc5C4)[C@@H](O)C3)cn2c1 (single isomer, unassigned) [Example 131]
 | 331 |  |  | ~14 | 15100 | CC1(C)CC(=O)Nc2cc(C(=O)N3CC[C@H](N4CCc5ccccc5C4)[C@@H](O)C3)ccc21 [Example 96, 7-((3S,4S)-4-(3,4-dihydroisoquinolin-2(1H)-yl)-3-hydroxypiperidine-1-carbonyl)-4,4-dimethyl-3,4-dihydroquinolin-2(1H)-one]
 | 59 |  |  | 5.4 | 2850 | CC1(C)OC(=O)Nc2cc(C(=O)N3CC[C@H](N4CCc5ccccc5C4)[C@@H](O)C3)ccc21 [Example 97, 7-((3S,4S)-4-(3,4-dihydroisoquinolin-2(1H)-yl)-3-hydroxypiperidine-1-carbonyl)-4,4-dimethyl-1,4-dihydro-2H-benzo[d][1,3]oxazin-2-one]
 | 5830 |  |  | ~118 | > 100000 | CC1(C)OC(=O)Nc2cc(C(=O)N3CC[C@@H](N4CCc5ccccc5C4)[C@H](O)C3)ccc21 [Example 98, 7-((3R,4R)-4-(3,4-dihydroisoquinolin-2(1H)-yl)-3-hydroxypiperidine-1-carbonyl)-4,4-dimethyl-1,4-dihydro-2H-benzo[d][1,3]oxazin-2-one]
 | 15 |  |  | 3.2 | 1040 | CS(=O)(=O)N1CCC(Nc2cc(C(=O)N3CC[C@H](N4CCc5ccccc5C4)[C@@H](O)C3)c(F)cn2)CC1 [Example 105, ((3S,4S)-4-(3,4-dihydroisoquinolin-2(1H)-yl)-3-hydroxypiperidin-1-yl)(5-fluoro-2-((1-(methylsulfonyl)piperidin-4-yl)amino)pyridin-4-yl)methanone]
 | 6.2 |  |  | 1.9 | 496 | CCOC(=O)N1CCC(Nc2cc(C(=O)N3CC[C@H](N4CCc5ccccc5C4)[C@@H](O)C3)c(F)cn2)CC1 [Example 106, ethyl 4-((4-((3S,4S)-4-(3,4-dihydroisoquinolin-2(1H)-yl)-3-hydroxypiperidine-1-carbonyl)-5-fluoropyridin-2-yl)amino)piperidine-1-carboxylate]
